Measurements: PubChem BioAssay (NCI)
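Interpolation was linear, between the two tested concentrations surrounding the appropriate level; five concentrations were tested over 48 hours in 96-well plates. At the TGI there is no net growth.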

Experiments:
Test in all cases: DTP human tumour cell line panel, 48 h
NCI-H226 lung = test system: NCI-H226 lung
MOLT-4 leukemia = test system: MOLT-4 leukemia
NCI-H460 lung = test system: NCI-H460 lung
786-0 renal = test system: 786-0 renal
HOP-18 NSCLC = test system: HOP-18 NSCLC
OVCAR-8 ovarian = test system: OVCAR-8 ovarian
A549 NSCLC = test system: A549 NSCLC
HCT-15 colon = test system: HCT-15 colon
SN12C renal = test system: SN12C renal
SK-MEL-5 melanoma = test system: SK-MEL-5 melanoma
HCT-116 colon = test system: HCT-116 colon
LOX IMVI melanoma = test system: LOX IMVI melanoma
OVCAR-3 ovarian = test system: OVCAR-3 ovarian
SW-620 colon = test system: SW-620 colon
OVCAR-4 ovarian = test system: OVCAR-4 ovarian
SNB-19 CNS = test system: SNB-19 CNS
OVCAR-5 ovarian = test system: OVCAR-5 ovarian
UO-31 renal = test system: UO-31 renal
SF-295 CNS = test system: SF-295 CNS
TK-10 renal = test system: TK-10 renal
SK-MEL-28 melanoma = test system: SK-MEL-28 melanoma
SR leukemia = test system: SR leukemia
K-562 leukemia = test system: K-562 leukemia
DMS 114 small cell lung = test system: DMS 114 small cell lung
EKVX NSCLC = test system: EKVX NSCLC
NCI-H522 lung = test system: NCI-H522 lung
HT29 colon = test system: HT29 colon
CAKI-1 renal = test system: CAKI-1 renal
RPMI-8226 leukemia = test system: RPMI-8226 leukemia
KM12 colon = test system: KM12 colon
CCRF-CEM leukemia = test system: CCRF-CEM leukemia
SNB-75 CNS = test system: SNB-75 CNS
SF-268 CNS = test system: SF-268 CNS
HOP-62 NSCLC = test system: HOP-62 NSCLC
UACC-257 melanoma = test system: UACC-257 melanoma
COLO 205 colon = test system: COLO 205 colon
DMS 273 small cell lung = test system: DMS 273 small cell lung
MALME-3M melanoma = test system: MALME-3M melanoma
HCC-2998 colon = test system: HCC-2998 colon
M19-MEL melanoma = test system: M19-MEL melanoma
ACHN renal = test system: ACHN renal
SF-539 CNS = test system: SF-539 CNS
HL-60(TB) leukemia = test system: HL-60(TB) leukemia
NCI-H23 lung = test system: NCI-H23 lung
RXF 393 renal = test system: RXF 393 renal
UACC-62 melanoma = test system: UACC-62 melanoma
IGROV1 ovarian = test system: IGROV1 ovarian
KM20L2 colon = test system: KM20L2 colon
HOP-92 NSCLC = test system: HOP-92 NSCLC
U251 CNS = test system: U251 CNS
SK-MEL-2 melanoma = test system: SK-MEL-2 melanoma
M14 melanoma = test system: M14 melanoma
SK-OV-3 ovarian = test system: SK-OV-3 ovarian
SNB-78 CNS = test system: SNB-78 CNS
A498 renal = test system: A498 renal
LXFL 529 NSCLC = test system: LXFL 529 NSCLC

Measured: TGI

Cc1[nH]n(C(=O)Cc2ccccc2)c(=O)c1/C=C1\C(=O)C=Cc2ccccc21
79.9 µM: UO-31 renal
93.4 µM: CCRF-CEM leukemia
75.2 µM: SF-539 CNS
84.6 µM: HOP-18 NSCLC
40.2 µM: MALME-3M melanoma
93 µM: LOX IMVI melanoma
not listed: RXF 393 renal | UACC-62 melanoma | IGROV1 ovarian | KM20L2 colon | HOP-92 NSCLC | U251 CNS | SK-MEL-2 melanoma | M14 melanoma | SK-OV-3 ovarian | SNB-78 CNS | A498 renal | LXFL 529 NSCLC
> 100 µM: all other assays above

N#CN1CCC2CC(=O)CCC2C1 (configuration not stated)
not listed: NCI-H460 lung | HOP-18 NSCLC | OVCAR-8 ovarian | SK-MEL-5 melanoma | SF-295 CNS | EKVX NSCLC | NCI-H522 lung | HT29 colon | RPMI-8226 leukemia | CCRF-CEM leukemia | HOP-62 NSCLC | UACC-257 melanoma | COLO 205 colon | DMS 273 small cell lung | M19-MEL melanoma | SF-539 CNS | A498 renal | LXFL 529 NSCLC
> 100 µM: all other assays above

CC1(C)OC(COP2OCCO2)[C@H](COP2OCCO2)O1 (some centres not stated)
not listed: 786-0 renal | SNB-19 CNS | OVCAR-5 ovarian | UO-31 renal | SR leukemia | EKVX NSCLC | NCI-H522 lung | CAKI-1 renal | RPMI-8226 leukemia | HOP-62 NSCLC | COLO 205 colon | HCC-2998 colon | KM20L2 colon | HOP-92 NSCLC | U251 CNS | SK-OV-3 ovarian
> 100 µM: all other assays above
